The data set deals with AsPC-1 cells. As to the kind of experiment: Cytotoxicity test for oxaliplatin (WST-1 kit). As to conditions: l-OHP solutions 48 hours. Type of data set: cell-based. Here is the method: An oxaliplatin (l-OHP) solution was prepared by dissolving oxaliplatin in a 9% sucrose solution (sucrose/distilled water) at a concentration of 8 mg/ml. The cell viability was determined using a commercially available cytotoxicity assay kit (WST-1 kit, Wako Pure Chemical Industries, Ltd., Japan).
AsPC-1 cells (provided by Dr. Hironobu Yanagie of Research Center for Advanced Science and Technology, the University of Tokyo, Japan) cultured in RPMI 1640 medium supplemented with 10% FCS (fetal calf serum; SIGMA, USA) were treated with concentrations of l-OHP solutions [200×(1/2)^(0-10) nM] at 37° C. in 5% CO2 for 48 hours. Then, the medium was removed and a substrate (WST-1, Cell Counting Kit, Dojindo Laboratories, Japan) was added to the cells which were incubated at 37° C. in 5% CO2 for 2 hours to develop the colored product. The developed color was measured at an absorbance of 450 nm (reference wavelength: 620 nm) on an Immuno Mini NJ-2300 (Cosmo Bio Co., Ltd., Japan).

A value given as a limit tells only on which side of the number the result lay.

For `O=C1[O][Pt]2([NH]C3CCCCC3[NH]2)[O]C1=O` [l-OHP, cis-[(1R, 2R)-1,2-cyclohexanediamine-N,N′][oxalato(2)-O,O′]platinum], the “cytotoxicity LD50” value was greater than 8 µg/mL.

The record behind these values is US8758810B2, “Liposome compositions” (priority 2005, dated 2014).
